Results taken from patent publication US12600731B2, “Isoxazolo[5,4-H]quinazoline compounds as protein kinase inhibitors” (CHENGDU CYNOGEN BIO-PHARMACEUTICAL TECHNOLOGY CO., LTD., priority 2019, dated 2026).
Structures can show the parent of a compound that is named as a salt.

Experiments:
Assay type in all cases: biochemical
CDK6/Cyclin D3 = CDK6/Cyclin D3 (Homo sapiens, UniProt Q00534); assay: Kinase activity assay, CDK6/Cyclin D3 (tested in a similar manner); details: tested in a similar manner to CDK4/cyclin D3
Chain of CDK6/Cyclin D3 (Q00534 whole entry, species assumed): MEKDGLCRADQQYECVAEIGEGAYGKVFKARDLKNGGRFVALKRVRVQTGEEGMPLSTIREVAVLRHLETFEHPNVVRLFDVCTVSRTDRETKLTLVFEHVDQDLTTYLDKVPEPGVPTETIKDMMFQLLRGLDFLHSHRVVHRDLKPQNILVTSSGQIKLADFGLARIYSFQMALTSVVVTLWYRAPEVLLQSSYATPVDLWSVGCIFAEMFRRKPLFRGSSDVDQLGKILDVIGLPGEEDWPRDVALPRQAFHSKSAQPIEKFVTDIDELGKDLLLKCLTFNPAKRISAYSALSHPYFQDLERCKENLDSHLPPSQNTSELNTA
Chain of CDK6/Cyclin D3 (P30281 whole entry partner, species assumed): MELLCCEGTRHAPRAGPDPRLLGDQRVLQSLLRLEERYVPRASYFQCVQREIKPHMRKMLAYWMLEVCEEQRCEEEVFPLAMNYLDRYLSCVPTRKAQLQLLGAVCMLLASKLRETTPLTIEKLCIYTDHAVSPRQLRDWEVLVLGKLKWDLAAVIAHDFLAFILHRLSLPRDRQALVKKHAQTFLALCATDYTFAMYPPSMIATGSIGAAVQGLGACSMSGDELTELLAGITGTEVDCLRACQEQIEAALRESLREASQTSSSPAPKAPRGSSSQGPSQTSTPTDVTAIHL
Experimental: (§1) The inhibitory effect of compounds against the kinase CDK4/cyclin D3 was detected by Caliper Mobility Shift Assay method. The final concentration of the compounds to be tested was set at 10 concentrations starting from 1 μM by 3-fold serial dilution. 5 μL of compounds at 5-fold final concentration and 10 μL of CDK4/cyclin D3 kinase solution at a final concentration of 10 nM was added to a 384-well reaction plate, respectively. The plate was pre-incubated for 10 min at room temperature (with negative control wells containing 10 μL of kinase buffer and 5 μL of 5% DMSO; positive control wells containing 10 μL of kinase solution and 5 μL of 5% DMSO). The reaction was initiated by adding 10 μL of ATP at a final concentration of 250 μM and the corresponding substrate peptide mixture at room temperature for 150 minutes. 30 μL of stop detection solution containing EDTA was added to stop the kinase reaction. Caliper EZ Reader was used to read the conversion rate. Inhibition rate %=(average conversion rate of positive control %−conversion rate of sample %)/(average conversion rate of positive control %−average conversion rate of negative control %). wherein: negative control wells represent the conversion rate readings of wells without enzymatic activity; positive control wells represent conversion readings for wells with no compound inhibition. The log(inhibitor) vs. response—Variable slope of the analysis software GraphPad Prism 5 was used with log concentration value as the X-axis and the percent inhibition rate as the Y-axis to fit the dose-response curve, the IC50 value of each compound on the enzyme activity was thus obtained. Calculation formula: Y=Bottom+(Top−Bottom)/(1+10^((Log IC50−X)*HillSlope)).
(§2) The IC50 values for CDK6/Cyclin D3 and CDK2/Cyclin A2 of compounds of the present disclosure were tested in a similar manner.

CDK2/Cyclin A2 = CDK2/Cyclin A2 (Homo sapiens, UniProt P24941); assay: Kinase activity assay, CDK2/Cyclin A2 (tested in a similar manner); details: tested in a similar manner to CDK4/cyclin D3
Experimental: as §1, §2

CDK4/cyclin D3 = CDK4/cyclin D3 (Homo sapiens, UniProt P11802); assay: Kinase activity assay, Caliper Mobility Shift Assay, CDK4/cyclin D3; details: 10 nM kinase, ATP 250 μM, 150 minutes at room temperature
Chain of CDK4/cyclin D3 (P11802 whole entry, species assumed): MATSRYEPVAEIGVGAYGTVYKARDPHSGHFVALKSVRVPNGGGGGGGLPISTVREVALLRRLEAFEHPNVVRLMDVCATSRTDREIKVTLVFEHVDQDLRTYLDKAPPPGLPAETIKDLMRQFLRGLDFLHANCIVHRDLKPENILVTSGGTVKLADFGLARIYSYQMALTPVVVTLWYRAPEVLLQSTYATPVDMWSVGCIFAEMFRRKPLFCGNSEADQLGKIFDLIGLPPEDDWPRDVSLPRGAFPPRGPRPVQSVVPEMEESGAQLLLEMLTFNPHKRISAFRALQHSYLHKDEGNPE
Chain of CDK4/cyclin D3 (P30281 whole entry partner, species assumed): as the sequence (P30281 whole entry partner, species assumed) above
Experimental: as §1

Row | IC50 (CDK6/Cyclin D3) [nM] | IC50 (CDK2/Cyclin A2) [nM] | IC50 (CDK4/cyclin D3) [nM] | SMILES
1 | 245 | 140 | 100 | CC(C)c1noc2ccc3cnc(Nc4ccc(N5CCC(CCCO)CC5)cc4)nc3c12 [Compound I-30, 3-(1-(4-((9-isopropylisoxazolo[5,4-h]quinazolin-2-yl)amino)phenyl)piperidin-4-yl)propan-1-ol]
2 | 359 | 294 | 150 | CC(C)c1noc2ccc3cnc(Nc4ccc(N5CCOCC5)cc4F)nc3c12 [Compound I-32, N-(2-fluoro-4-morpholinophenyl)-9-isopropylisoxazolo[5,4-h] quinazolin-2-amine]
3 | 377 |  | 82 | CCN1CCN(c2cnc(Nc3ncc4ccc5onc(C(C)C)c5c4n3)cc2C)CC1 [Compound I-6, N-(5-(4-ethylpiperazin-1-yl)-4-methylpyridin-2-yl)-9-isopropylisoxazolo[5,4-H] quinazolin-2-amine]
4 | 4 |  | 1 | CCN1CCN(c2ccc(Nc3ncc4ccc5onc(C(C)C)c5c4n3)nc2)CC1 [Compound I-5, N-(5-(4-ethylpiperazin-1-yl)pyridin-2-yl)-9-isopropylisoxazolo [5,4-H]quinazolin-2-amine]
5 | 9 | 12 | 3 | CC(C)c1noc2ccc3cnc(Nc4ccc(N5CCN(C)CC5)c(F)c4)nc3c12 [Compound I-34]
6 | 21 |  | 7 | c1cc(Nc2ncc3ccc4onc(C5CCCC5)c4c3n2)ncc1N1CCNCC1 [Compound I-22, 9-cyclopentyl-N-(5-(piperazin-1-yl)pyridin-2-yl)isoxazolo[5,4-H] quinazolin-2-amine]
7 | 21 |  | 5 | CC(C)c1noc2ccc3cnc(Nc4ccc(N5CCS(=O)(=O)CC5)cn4)nc3c12 [Compound I-17, 4-(6-((9-isopropylisoxazolo[5,4-H]quinazolin-2-yl)amino)pyridin-3-yl)thiomorpholine 1,1-dioxide]
8 | 4 |  | 1 | CC(C)c1noc2ccc3cnc(Nc4ccc(N5CCN(C)CC5)cn4)nc3c12 [Compound I-4, 9-isopropyl-N-(5-(4-methylpiperazin-1-yl)pyridin-2-yl)isoxazolo [5,4-H]quinazolin-2-amine]
9 | 25 |  | 7 | CC(C)c1noc2ccc3cnc(Nc4ccc(N5CCNCC5=O)cn4)nc3c12 [Compound I-16, 1-(6-((9-isopropylisoxazolo[5,4-H]quinazolin-2-yl)amino)pyridin-3-yl)piperazin-2-one]
10 | 68 | 82 | 34 | COc1ccc2cc(Nc3ncc4ccc5onc(C(C)C)c5c4n3)ccc2n1 [Compound I-37, 9-isopropyl-N-(2-methoxyquinolin-6-yl)isoxazolo[5,4-H]quinazolin-2-amine]
11 | 15 |  | 5 | CC(C)c1noc2ccc3cnc(Nc4ccc(N5CCOCC5)cn4)nc3c12 [Compound I-8, 9-isopropyl-N-(5-morpholinopyridin-2-yl)isoxazolo[5,4-H] quinazolin-2-amine]
12 | 15 |  | 5 | CN1CCN(c2ccc(Nc3ncc4ccc5onc(C6CCCC6)c5c4n3)nc2)CC1 [Compound I-23, 9-cyclopentyl-N-(5-(4-methylpiperazin-1-yl)pyridin-2-yl)isoxazolo[5,4-H]quinazolin-2-amine]
13 | 36 |  | 8 | Cc1nc(Nc2ncc3ccc4onc(C(C)C)c4c3n2)ccc1N1CCNCC1 [Compound I-3, 9-isopropyl-N-(6-methyl-5-(piperazin-1-yl)pyridin-2-yl)isoxazolo[5,4-H] quinazolin-2-amine]
14 | 14 |  | 4 | CC(C)c1noc2ccc3cnc(Nc4ccc(N5CCN(C(C)C)CC5)cn4)nc3c12 [Compound I-9, 9-isopropyl-N-(5-(4-isopropylpiperazin-1-yl)pyridin-2-yl)isoxazolo [5,4-H]quinazolin-2-amine]
15 | 7 | 12 | 2 | CC(C)c1noc2ccc3cnc(Nc4ccc(N(CCN5CCOCC5)S(C)(=O)=O)cc4)nc3c12 [Compound I-41, N-(4-((9-isopropylisoxazolo[5,4-H]quinazolin-2-yl)amino)phenyl)-N-(2-morpholinoethyl) methanesulfonamide]
16 | 40 |  | 9 | CCN1CCN(Cc2ccc(Nc3ncc4ccc5onc(C(C)C)c5c4n3)nc2)CC1 [Compound I-12, N-(5-((4-ethylpiperazin-1-yl)methyl)pyridin-2-yl)-9-isopropylisoxazolo[5,4-H] quinazolin-2-amine]

Row | IC50 (CDK6/Cyclin D3) [nM] | IC50 (CDK2/Cyclin A2) [nM] | IC50 (CDK4/cyclin D3) [nM] | SMILES
17 | 67 |  | 21 | CC(C)c1noc2ccc3cnc(Nc4ccc(N5CCN(C6CC6)CC5)cn4)nc3c12 [Compound I-10, N-(5-(4-eyelopropylpiperazin-1-yl)pyridin-2-yl)-9-isopropylisoxazolo[5,4-H] quinazolin-2-amine]
18 | 64 |  | 11 | CCN1CCN(c2ccc(Nc3ncc4c(n3)-c3c(C(C)C)noc3CC4)nc2)CC1 [Compound I-25, N-(5-(4-ethylpiperazin-1-yl)pyridin-2-yl)-9-isopropyl-5,6-dihydroisoxazolo [5,4-H]quinazolin-2-amine]
19 | 245 |  | 47 | CC(C)Cc1noc2ccc3cnc(Nc4ccc(N5CCOCC5)cn4)nc3c12 [Compound I-21, 9-isobutyl-N-(5-morpholinopyridin-2-yl)isoxazolo[5,4-H]quinazolin-2-amine]
20 | 39 |  | 7 | CCN1CCN(c2ccc(Nc3ncc4ccc5onc(CC(C)C)c5c4n3)nc2)CC1 [Compound I-20, N-(5-(4-ethylpiperazin-1-yl)pyridin-2-yl)-9-isobutylisoxazolo[5,4-H] quinazolin-2-amine]
21 | 82 |  | 13 | CC(C)c1noc2c1-c1nc(Nc3ccc(N4CCNCC4)cn3)ncc1CC2 [Compound I-24, 9-isopropyl-N-(5-(piperazin-1-yl)pyridin-2-yl)-5,6-dihydroisoxazolo[5,4-h]quinazolin-2-amine hydrochloride]
22 | 12 |  | 4 | CC(C)c1noc2ccc3cnc(Nc4ccc(N5CCC(N(C)C)CC5)cn4)nc3c12 [Compound I-13, N-(5-(4-(dimethylamino)piperidin-1-yl)pyridin-2-yl)-9-isopropylisoxazolo [5,4-H]quinazolin-2-amine]
23 | 37 |  | 7 | CC(C)Cc1noc2ccc3cnc(Nc4ccc(N5CCN(C)CC5)cn4)nc3c12 [Compound I-19, 9-isobutyl-N-(5-(4-methylpiperazin-1-yl)pyridin-2-yl)isoxazolo[5,4-H] quinazolin-2-amine]
24 | 7 |  | 2 | CC(C)c1noc2ccc3cnc(Nc4ccc(N5CCNCC5)cn4)nc3c12 [Compound I-1, 9-isopropyl-N-(5-(piperazin-1-yl)pyridin-2-yl)isoxazolo[5,4-H]quinazolin-2-amine hydrochloride]
25 | 19 |  | 7 | CC(C)c1noc2ccc3cnc(Nc4ccc(N5CCNCC5)nn4)nc3c12 [Compound I-15, 9-isopropyl-N-(6-(piperazin-1-yl)pyridazin-3-yl)isoxazolo[5,4-H]quinazolin-2-amine]
26 | 24 |  | 8 | CC(C)CN1CCN(c2ccc(Nc3ncc4ccc5onc(C(C)C)c5c4n3)nc2)CC1 [Compound I-11, N-(5-(4-isobutylpiperazin-1-yl)pyridin-2-yl)-9-isopropylisoxazolo[5,4-H] quinazolin-2-amine]
27 | 176 |  | 36 | CCN1CCN(c2ccc(Nc3ncc4ccc5onc(C(C)C)c5c4n3)nc2C)CC1 [Compound I-7, N-(5-(4-ethylpiperazin-1-yl)-6-methylpyridin-2-yl)-9-isopropylisoxazolo [5,4-H]quinazolin-2-amine]
28 | 10 |  | 4 | CC(C)c1noc2ccc3cnc(Nc4ccc(C5CCNCC5)cn4)nc3c12 [Compound I-14, 9-isopropyl-N-(5-(piperidin-4-yl)pyridin-2-yl)isoxazolo[5,4-H] quinazolin-2-amine]
29 | 276 |  | 63 | CC(C)c1noc2c1-c1nc(Nc3ccc(N4CCOCC4)cn3)ncc1CC2 [Compound I-26, 9-isopropyl-N-(5-morpholinopyridin-2-yl)-5,6-dihydroisoxazolo[5,4-H] quinazolin-2-amine]
30 | 32 |  | 6 | CC(C)Cc1noc2ccc3cnc(Nc4ccc(N5CCNCC5)cn4)nc3c12 [Compound I-18, 9-isobutyl-N-(5-(piperazin-1-yl)pyridin-2-yl)isoxazolo[5,4-H]quinazolin-2-amine]
31 | 23 |  | 6 | Cc1cc(Nc2ncc3ccc4onc(C(C)C)c4c3n2)ncc1N1CCNCC1 [Compound I-2, 9-isopropyl-N-(4-methyl-5-(piperazin-1-yl)pyridin-2-yl)isoxazolo[5,4-H] quinazolin-2-amine]
